{"source": "patent US20070010671A1", "about": "“Novel quinazoline derivatives and methods of treatment related to the use thereof” (priority 2003, published 2007)", "data": [{"molecular_target": "MCH receptor (Homo sapiens, UniProt Q99705)", "assay": "High throughput functional screening FLIPR/FDSS6000: inhibition of MCH-evoked intracellular Ca2+ changes", "assay_type": "cell-based", "conditions": "class by percent of control at 10^-7 M or IC50", "procedure,_shortened": "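Cells expressing a non-endogenous, constitutively active MCH receptor were loaded with 4 μM Fluo4-AM (with probenecid) for 1 hr at 37° C. Test compound was preincubated 3 min at 37° C before 50 nM MCH was added. The [Ca2+]i transient was read at Ex 488/Em 530 nm for 290 s.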", "values": [{"compound": "CCNC(=O)NC[C@H]1CC[C@@H](Nc2nc(N(C)C)c3ccccc3n2)CC1", "note": "[compound 433]", "class": "3 (Class 3: The value of percent of control at 10^−7 M was more than 60% or the value of IC50 was more than 200 nM.)"}, {"compound": "CCc1cccc(C)c1NC(=O)NC[C@H]1CC[C@@H](Nc2nc(N(C)C)c3ccccc3n2)CC1", "note": "[compound 434, N-[(cis-4-{[4-(dimethylamino)quinazolin-2-yl]amino}cyclohexyl)methyl]-N′-(2-ethyl-6-methylphenyl)urea]", "class": "1 (Class 1: The value of percent of control at 10^−7 M was less than 40% or the value of IC50 was less than 50 nM.)"}, {"compound": "CN(C)c1nc(N[C@H]2CC[C@@H](CNC(=O)Nc3ccc(F)c([N+](=O)[O-])c3)CC2)nc2ccccc12", "note": "[compound 436]", "class": "3 (Class 3: The value of percent of control at 10^−7 M was more than 60% or the value of IC50 was more than 200 nM.)"}, {"compound": "CN(C)c1nc(N[C@H]2CC[C@@H](CNC(=O)Nc3ccc(F)cc3)CC2)nc2ccccc12", "note": "[compound 437, N-[(cis-4-{[4-(dimethylamino)quinazolin-2-yl]amino}cyclohexyl)methyl]-N′-(4-fluorophenyl)urea]", "class": "1 (Class 1: The value of percent of control at 10^−7 M was less than 40% or the value of IC50 was less than 50 nM.)"}, {"compound": "CN(C)c1nc(N[C@H]2CC[C@@H](CNC(=O)Nc3cccc(F)c3)CC2)nc2ccccc12", "note": "[compound 438, N-[(cis-4-{[4-(dimethylamino)quinazolin-2-yl]amino}cyclohexyl)methyl]-N′-(3-fluorophenyl)urea]", "class": "2 (Class 2: The value of percent of control at 10^−7 M was from 40% to 60% or the value of IC50 was from 50 nM to 200 nM.)"}, {"compound": "CN(C)c1nc(N[C@H]2CC[C@@H](CNC(=O)Nc3ccccc3F)CC2)nc2ccccc12", "note": "[compound 439, N-[(cis-4-{[4-(dimethylamino)quinazolin-2-yl]amino}cyclohexyl)methyl]-N′-(2-fluorophenyl)urea]", "class": "2 (Class 2: The value of percent of control at 10^−7 M was from 40% to 60% or the value of IC50 was from 50 nM to 200 nM.)"}, {"compound": "CC(C)c1ccc(NC(=O)NC[C@H]2CC[C@@H](Nc3nc(N(C)C)c4ccccc4n3)CC2)cc1", "note": "[compound 440]", "class": "3 (Class 3: The value of percent of control at 10^−7 M was more than 60% or the value of IC50 was more than 200 nM.)"}, {"compound": "C=C(C)c1cccc(C(C)(C)NC(=O)NC[C@H]2CC[C@@H](Nc3nc(N(C)C)c4ccccc4n3)CC2)c1", "note": "[compound 441]", "class": "2 (Class 2: The value of percent of control at 10^−7 M was from 40% to 60% or the value of IC50 was from 50 nM to 200 nM.)"}, {"compound": "CC(C)NC(=O)NC[C@H]1CC[C@@H](Nc2nc(N(C)C)c3ccccc3n2)CC1", "note": "[compound 443]", "class": "3 (Class 3: The value of percent of control at 10^−7 M was more than 60% or the value of IC50 was more than 200 nM.)"}, {"compound": "COc1ccc(NC(=O)NC[C@H]2CC[C@@H](Nc3nc(N(C)C)c4ccccc4n3)CC2)cc1", "note": "[compound 444, N-[(cis-4-{[4-(dimethylamino)quinazolin-2-yl]amino}cyclohexyl)methyl]-N′-(4-methoxyphenyl)urea]", "class": "2 (Class 2: The value of percent of control at 10^−7 M was from 40% to 60% or the value of IC50 was from 50 nM to 200 nM.)"}, {"compound": "Cc1ccc(NC(=O)NC[C@H]2CC[C@@H](Nc3nc(N(C)C)c4ccccc4n3)CC2)c([N+](=O)[O-])c1", "note": "[compound 445, N-[(cis-4-{[4-(dimethylamino)quinazolin-2-yl]amino}cyclohexyl)methyl]-N′-(4-methyl-2-nitrophenyl)urea]", "class": "2 (Class 2: The value of percent of control at 10^−7 M was from 40% to 60% or the value of IC50 was from 50 nM to 200 nM.)"}, {"compound": "COc1ccccc1NC(=O)NC[C@H]1CC[C@@H](Nc2nc(N(C)C)c3ccccc3n2)CC1", "note": "[compound 446, N-[(cis-4-{[4-(dimethylamino)quinazolin-2-yl]amino}cyclohexyl)methyl]-N′-(2-methoxyphenyl)urea]", "class": "2 (Class 2: The value of percent of control at 10^−7 M was from 40% to 60% or the value of IC50 was from 50 nM to 200 nM.)"}, {"compound": "COc1cccc(NC(=O)NC[C@H]2CC[C@@H](Nc3nc(N(C)C)c4ccccc4n3)CC2)c1", "note": "[compound 447, N-[(cis-4-{[4-(dimethylamino)quinazolin-2-yl]amino}cyclohexyl)methyl]-N′-(3-methoxyphenyl)urea]", "class": "2 (Class 2: The value of percent of control at 10^−7 M was from 40% to 60% or the value of IC50 was from 50 nM to 200 nM.)"}, {"compound": "CSc1ccc(NC(=O)NC[C@H]2CC[C@@H](Nc3nc(N(C)C)c4ccccc4n3)CC2)cc1", "note": "[compound 448, N-[(cis-4-{[4-(dimethylamino)quinazolin-2-yl]amino}cyclohexyl)methyl]-N′-[4-(methylthio)phenyl]urea]", "class": "1 (Class 1: The value of percent of control at 10^−7 M was less than 40% or the value of IC50 was less than 50 nM.)"}, {"compound": "COc1ccc(CNC(=O)NC[C@H]2CC[C@@H](Nc3nc(N(C)C)c4ccccc4n3)CC2)cc1", "note": "[compound 449]", "class": "3 (Class 3: The value of percent of control at 10^−7 M was more than 60% or the value of IC50 was more than 200 nM.)"}, {"compound": "CN(C)c1nc(N[C@H]2CC[C@@H](CNC(=O)Nc3cccc4ccccc34)CC2)nc2ccccc12", "note": "[compound 450, N-[(cis-4-{[4-(dimethylamino)quinazolin-2-yl]amino}cyclohexyl)methyl]-N′-1-naphthylurea]", "class": "2 (Class 2: The value of percent of control at 10^−7 M was from 40% to 60% or the value of IC50 was from 50 nM to 200 nM.)"}, {"compound": "CN(C)c1nc(N[C@H]2CC[C@@H](CNC(=O)NC3C[C@H]3c3ccccc3)CC2)nc2ccccc12", "note": "(stereo partly drawn) [compound 451]", "class": "3 (Class 3: The value of percent of control at 10^−7 M was more than 60% or the value of IC50 was more than 200 nM.)"}, {"compound": "CN(C)c1nc(N[C@H]2CC[C@@H](CNC(=O)Nc3ccccc3)CC2)nc2ccccc12", "note": "[compound 452, N-[(cis-4-{[4-(dimethylamino)quinazolin-2-yl]amino}cyclohexyl)methyl]-N′-phenylurea]", "class": "1 (Class 1: The value of percent of control at 10^−7 M was less than 40% or the value of IC50 was less than 50 nM.)"}, {"compound": "CN(C)c1nc(N[C@H]2CC[C@@H](CNC(=O)Nc3ccc(Oc4ccccc4)cc3)CC2)nc2ccccc12", "note": "[compound 453]", "class": "3 (Class 3: The value of percent of control at 10^−7 M was more than 60% or the value of IC50 was more than 200 nM.)"}, {"compound": "CCCCCNC(=O)NC[C@H]1CC[C@@H](Nc2nc(N(C)C)c3ccccc3n2)CC1", "note": "[compound 454, N-[(cis-4-{[4-(dimethylamino)quinazolin-2-yl]amino}cyclohexyl)methyl]-N′-pentylurea]", "class": "2 (Class 2: The value of percent of control at 10^−7 M was from 40% to 60% or the value of IC50 was from 50 nM to 200 nM.)"}, {"compound": "CN(C)c1nc(N[C@H]2CC[C@@H](CNC(=O)Nc3ccccc3C(F)(F)F)CC2)nc2ccccc12", "note": "[compound 455, N-[(cis-4-{[4-(dimethylamino)quinazolin-2-yl]amino}cyclohexyl)methyl]-N′-[2-(trifluoromethyl)phenyl]urea]", "class": "1 (Class 1: The value of percent of control at 10^−7 M was less than 40% or the value of IC50 was less than 50 nM.)"}, {"compound": "CN(C)c1nc(N[C@H]2CC[C@@H](CNC(=O)Nc3cccc(C(F)(F)F)c3)CC2)nc2ccccc12", "note": "[compound 456]", "class": "3 (Class 3: The value of percent of control at 10^−7 M was more than 60% or the value of IC50 was more than 200 nM.)"}, {"compound": "Cc1ccc(NC(=O)NC[C@H]2CC[C@@H](Nc3nc(N(C)C)c4ccccc4n3)CC2)cc1", "note": "[compound 457, N-[(cis-4-{[4-(dimethylamino)quinazolin-2-yl]amino}cyclohexyl)methyl]-N′-(4-methylphenyl)urea]", "class": "1 (Class 1: The value of percent of control at 10^−7 M was less than 40% or the value of IC50 was less than 50 nM.)"}, {"compound": "Cc1cc(C)c(NC(=O)NC[C@H]2CC[C@@H](Nc3nc(N(C)C)c4ccccc4n3)CC2)c(C)c1", "note": "[compound 458, N-[(cis-4-{[4-(dimethylamino)quinazolin-2-yl]amino}cyclohexyl)methyl]-N′-mesitylurea]", "class": "1 (Class 1: The value of percent of control at 10^−7 M was less than 40% or the value of IC50 was less than 50 nM.)"}, {"compound": "Cc1cccc(NC(=O)NC[C@H]2CC[C@@H](Nc3nc(N(C)C)c4ccccc4n3)CC2)c1", "note": "[compound 459, N-[(cis-4-{[4-(dimethylamino)quinazolin-2-yl]amino}cyclohexyl)methyl]-N′-(3-methylphenyl)urea]", "class": "2 (Class 2: The value of percent of control at 10^−7 M was from 40% to 60% or the value of IC50 was from 50 nM to 200 nM.)"}, {"compound": "Cc1ccccc1NC(=O)NC[C@H]1CC[C@@H](Nc2nc(N(C)C)c3ccccc3n2)CC1", "note": "[compound 460, N-[(cis-4-{[4-(dimethylamino)quinazolin-2-yl]amino}cyclohexyl)methyl]-N′-(2-methylphenyl)urea]", "class": "1 (Class 1: The value of percent of control at 10^−7 M was less than 40% or the value of IC50 was less than 50 nM.)"}, {"compound": "CN(C)c1nc(N[C@H]2CC[C@@H](CNC(=O)Nc3c(Cl)cc(Cl)cc3Cl)CC2)nc2ccccc12", "note": "[compound 463, N-[(cis-4-{[4-(dimethylamino)quinazolin-2-yl]amino}cyclohexyl)methyl]-N′-(2,4,6-trichlorophenyl)urea]", "class": "1 (Class 1: The value of percent of control at 10^−7 M was less than 40% or the value of IC50 was less than 50 nM.)"}, {"compound": "Cc1ccc(NC(=O)NC[C@H]2CC[C@@H](Nc3nc(N(C)C)c4ccccc4n3)CC2)cc1Cl", "note": "[compound 464]", "class": "3 (Class 3: The value of percent of control at 10^−7 M was more than 60% or the value of IC50 was more than 200 nM.)"}, {"compound": "CC(NC(=O)NCC1CCC(Nc2nc(N(C)C)c3ccccc3n2)CC1)c1ccccc1", "note": "(stereo not drawn) [compound 466, 1-[4-(4-Dimethylamino-quinazolin-2-ylamino)-cyclohexylmethyl]-3-(1-phenyl-ethyl)-urea]", "class": "2 (Class 2: The value of percent of control at 10^−7 M was from 40% to 60% or the value of IC50 was from 50 nM to 200 nM.)"}, {"compound": "CC(NC(=O)NCC1CCC(Nc2nc(N(C)C)c3ccccc3n2)CC1)c1cccc2ccccc12", "note": "(stereo not drawn) [compound 467]", "class": "2 (Class 2: The value of percent of control at 10^−7 M was from 40% to 60% or the value of IC50 was from 50 nM to 200 nM.)"}]}]}
